Results from ChEMBL document CHEMBL2150902, “Novel AI-2 quorum sensing inhibitors in Vibrio harveyi identified through structure-based virtual screening” (Bioorg Med Chem Lett, 2012).

Legend:
[1] = Inhibition of LuxP/LuxQ mediated AI2-dependent quorum sensing in Vibrio harveyi MM32 incubated for 4 to 6 hrs measured every 30 mins by luminescence assay
Vibrio harveyi = test: Growth inhibition of Vibrio harveyi MM32 by spectrophotometry; type: organism-based; details: in vivo

SMILES	IC50 [1] [µM]	growth inhibition (GI) (Vibrio harveyi)
O=C(O)c1ccc(-c2c(Cl)cc([N+](=O)[O-])cc2Cl)o1	40.1	Non-toxic
C=CCOC(=O)C1=CS(=O)(=O)c2ccccc21	3.06	Toxic
Cc1cc(=O)n2nc(N)c(/N=N/c3ccccc3)c2[nH]1	19.8	Toxic
Cn1cnnc1SCC(=O)Nc1nc2ccccc2s1	5.51	Non-toxic
CSc1nccc(Oc2ccccc2Cl)n1	3.42	Non-toxic

Further lines, with some results ahead:

IC50 [1] [µM]	SMILES	growth inhibition (GI) (Vibrio harveyi)
41	CSC1=CS(=O)(=O)c2ccccc21	Toxic
14.8	Fc1ccccc1-c1ccc(CNCc2ccco2)o1	Toxic
